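Method: 48-hour compound exposure of cells in 96-well plates, five concentrations, linear interpolation of endpoints. GI50 marks 50% less growth. TGI: total growth inhibition.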
What was measured:
Assay in all cases: inhibition of tumour cell growth, NCI panel, 48 h
OVCAR-5 ovarian = test system: OVCAR-5 ovarian
PC-3 prostate = test system: PC-3 prostate
OVCAR-3 ovarian = test system: OVCAR-3 ovarian
SK-OV-3 ovarian = test system: SK-OV-3 ovarian
UO-31 renal = test system: UO-31 renal
BT-549 breast = test system: BT-549 breast
M14 melanoma = test system: M14 melanoma
SR leukemia = test system: SR leukemia
SW-620 colon = test system: SW-620 colon
SF-268 CNS = test system: SF-268 CNS

Structure (SMILES): COc1ccccc1CNCCCN1C(=O)c2ccc3c4c(ccc(c24)C1=O)C(=O)N(CCCNCCCCNCCCCN)C3=O
- GI50 (OVCAR-5 ovarian): 2.23 µM
- TGI (OVCAR-5 ovarian): 7 µM
- GI50 (PC-3 prostate): 2.5 µM
- TGI (PC-3 prostate): 10.3 µM
- GI50 (OVCAR-3 ovarian): 0.475 µM
- TGI (OVCAR-3 ovarian): 5.93 µM
- GI50 (SK-OV-3 ovarian): 2.82 µM
- TGI (SK-OV-3 ovarian): 14.1 µM
- GI50 (UO-31 renal): 3.44 µM
- TGI (UO-31 renal): > 67.3 µM
- GI50 (BT-549 breast): 9.17 µM
- TGI (BT-549 breast): 24.5 µM
- GI50 (M14 melanoma): 1.87 µM
- TGI (M14 melanoma): 4.68 µM
- GI50 (SR leukemia): 1.5 µM
- TGI (SR leukemia): 17.7 µM
- GI50 (SW-620 colon): 0.417 µM
- TGI (SW-620 colon): 10.1 µM
- GI50 (SF-268 CNS): 0.903 µM
- TGI (SF-268 CNS): 6.99 µM

Structure (SMILES): CCCCCCCCCCCC1=NC(C)(C)CN1CCO
- GI50 (OVCAR-5 ovarian): 15.9 µM
- TGI (OVCAR-5 ovarian): 30.9 µM
- GI50 (PC-3 prostate): 3.29 µM
- TGI (PC-3 prostate): 17.2 µM
- GI50 (OVCAR-3 ovarian): 5.87 µM
- TGI (OVCAR-3 ovarian): 11.3 µM
- GI50 (SK-OV-3 ovarian): 14.8 µM
- TGI (SK-OV-3 ovarian): 29.2 µM
- GI50 (UO-31 renal): 7.25 µM
- TGI (UO-31 renal): 21 µM
- GI50 (BT-549 breast): 13.6 µM
- TGI (BT-549 breast): 34.3 µM
- GI50 (M14 melanoma): 1.92 µM
- TGI (M14 melanoma): 3.74 µM
- GI50 (SR leukemia): 2.38 µM
- TGI (SR leukemia): 5.79 µM
- GI50 (SW-620 colon): 1.95 µM
- TGI (SW-620 colon): 3.94 µM
- GI50 (SF-268 CNS): 6.68 µM
- TGI (SF-268 CNS): 20.3 µM

Structure (SMILES): CSC(=S)N/N=C/c1ccccc1
- TGI (OVCAR-5 ovarian): > 100 µM
- TGI (PC-3 prostate): > 100 µM
- TGI (OVCAR-3 ovarian): > 100 µM
- TGI (SK-OV-3 ovarian): > 100 µM
- TGI (UO-31 renal): > 100 µM
- TGI (BT-549 breast): > 100 µM
- TGI (M14 melanoma): > 100 µM
- TGI (SR leukemia): > 100 µM
- TGI (SW-620 colon): > 100 µM
- TGI (SF-268 CNS): > 100 µM

Structure (SMILES): CC(C)c1ccc2c(N=Nc3ccc(S(N)(=O)=O)cc3)c(O)[nH]c2c1
- GI50 (OVCAR-5 ovarian): > 25 µM
- TGI (OVCAR-5 ovarian): > 25 µM
- GI50 (PC-3 prostate): > 17.1 µM
- TGI (PC-3 prostate): > 25 µM
- GI50 (OVCAR-3 ovarian): 6.21 µM
- TGI (OVCAR-3 ovarian): 18.6 µM
- GI50 (SK-OV-3 ovarian): 7.22 µM
- TGI (SK-OV-3 ovarian): 19.3 µM
- GI50 (UO-31 renal): > 11.9 µM
- TGI (UO-31 renal): > 20.7 µM
- GI50 (BT-549 breast): 8.76 µM
- TGI (BT-549 breast): > 16.4 µM
- GI50 (M14 melanoma): > 25 µM
- TGI (M14 melanoma): > 25 µM
- GI50 (SR leukemia): > 16.2 µM
- TGI (SR leukemia): > 25 µM
- GI50 (SW-620 colon): > 25 µM
- TGI (SW-620 colon): > 25 µM
- GI50 (SF-268 CNS): 7.52 µM
- TGI (SF-268 CNS): > 20.2 µM

Structure (SMILES): C=C1C(=O)O[C@H]2[C@H]1CC/C(C=Nc1ccc(C(F)(F)F)cc1N)=C\CC[C@@]1(C)O[C@@H]21
- GI50 (OVCAR-5 ovarian): 13.2 µM
- TGI (OVCAR-5 ovarian): 31.7 µM
- GI50 (PC-3 prostate): 9.08 µM
- TGI (PC-3 prostate): 23.4 µM
- GI50 (OVCAR-3 ovarian): 2.75 µM
- TGI (OVCAR-3 ovarian): 11.3 µM
- GI50 (SK-OV-3 ovarian): 16.3 µM
- TGI (SK-OV-3 ovarian): 30 µM
- GI50 (UO-31 renal): 2.87 µM
- TGI (UO-31 renal): 19.3 µM
- GI50 (BT-549 breast): 7.04 µM
- TGI (BT-549 breast): 20.2 µM
- GI50 (M14 melanoma): 8.04 µM
- TGI (M14 melanoma): 22.3 µM
- GI50 (SR leukemia): 2.66 µM
- TGI (SR leukemia): 10.7 µM
- GI50 (SW-620 colon): 3.67 µM
- TGI (SW-620 colon): 13.2 µM
- GI50 (SF-268 CNS): 7.6 µM
- TGI (SF-268 CNS): 21.1 µM

Structure (SMILES): COc1ccc2nc3cccc([N+](=O)[O-])c3c(NCCN(CCO)CCO)c2c1
- GI50 (OVCAR-5 ovarian): 0.0291 µM
- TGI (OVCAR-5 ovarian): 0.138 µM
- TGI (PC-3 prostate): 0.219 µM
- GI50 (OVCAR-3 ovarian): 0.0187 µM
- TGI (OVCAR-3 ovarian): 0.0501 µM
- GI50 (SK-OV-3 ovarian): 0.106 µM
- TGI (SK-OV-3 ovarian): 0.771 µM
- GI50 (UO-31 renal): 0.0539 µM
- TGI (UO-31 renal): 0.184 µM
- GI50 (BT-549 breast): 0.0415 µM
- TGI (BT-549 breast): 0.14 µM
- GI50 (M14 melanoma): 0.0128 µM
- TGI (M14 melanoma): 0.0275 µM
- GI50 (SR leukemia): 0.017 µM
- TGI (SR leukemia): 0.647 µM
- GI50 (SW-620 colon): 0.0139 µM
- TGI (SW-620 colon): 0.619 µM
- GI50 (SF-268 CNS): 0.0332 µM
- TGI (SF-268 CNS): 0.234 µM

Structure (SMILES): C#CC[C@@H]1C[C@]2(C)[C@H]3CC[C@@H]4[C@H]5[C@H](C(=C)C)CC[C@]5(C(=O)O)CC[C@@]4(C)[C@]3(C)CC[C@H]2C(C)(C)[C@H]1O
- GI50 (OVCAR-5 ovarian): 3.07 µM
- TGI (OVCAR-5 ovarian): 11.6 µM
- GI50 (PC-3 prostate): 1.5 µM
- TGI (PC-3 prostate): 3.52 µM
- GI50 (OVCAR-3 ovarian): 1.7 µM
- TGI (OVCAR-3 ovarian): 3.15 µM
- GI50 (SK-OV-3 ovarian): 2.39 µM
- TGI (SK-OV-3 ovarian): 5.25 µM
- GI50 (UO-31 renal): 1.83 µM
- TGI (UO-31 renal): 5.33 µM
- GI50 (BT-549 breast): 2.52 µM
- TGI (BT-549 breast): 8.73 µM
- GI50 (M14 melanoma): 2.05 µM
- TGI (M14 melanoma): 4.68 µM
- GI50 (SR leukemia): 3.12 µM
- TGI (SR leukemia): 11.9 µM
- GI50 (SW-620 colon): 1.98 µM
- TGI (SW-620 colon): 4.28 µM
- GI50 (SF-268 CNS): 2.81 µM
- TGI (SF-268 CNS): 10.1 µM

Structure (SMILES): COc1c(OC(C)=O)c(OC(C)=O)cc2c1-c1ccc(OC)c(=O)cc1C(NC(C)=O)CC2 (centres undefined)
- TGI (OVCAR-5 ovarian): > 100 µM
- TGI (PC-3 prostate): > 100 µM
- TGI (OVCAR-3 ovarian): 0.071 µM
- TGI (SK-OV-3 ovarian): > 48.1 µM
- TGI (UO-31 renal): > 100 µM
- TGI (BT-549 breast): > 100 µM
- TGI (M14 melanoma): > 100 µM
- TGI (SR leukemia): > 100 µM
- TGI (SW-620 colon): > 100 µM
- TGI (SF-268 CNS): 54.4 µM

Structure (SMILES): C=C1C(=O)O[C@H]2[C@H]1CC/C(COC(=O)/C=C\C(=O)NCc1ccc(Cn3c(=O)sn(-c4ccc(OC)cc4)c3=O)cc1)=C\CC[C@@]1(C)O[C@@H]21
- GI50 (OVCAR-5 ovarian): 0.825 µM
- TGI (OVCAR-5 ovarian): 1.71 µM
- GI50 (PC-3 prostate): 0.542 µM
- TGI (PC-3 prostate): 1.32 µM
- GI50 (OVCAR-3 ovarian): 0.245 µM
- TGI (OVCAR-3 ovarian): 0.898 µM
- GI50 (SK-OV-3 ovarian): 4.77 µM
- TGI (SK-OV-3 ovarian): 11.6 µM
- GI50 (UO-31 renal): 0.408 µM
- TGI (UO-31 renal): 1.06 µM
- GI50 (BT-549 breast): 0.562 µM
- TGI (BT-549 breast): 1.29 µM
- GI50 (M14 melanoma): 0.603 µM
- TGI (M14 melanoma): 1.36 µM
- GI50 (SR leukemia): 0.322 µM
- TGI (SR leukemia): 11.8 µM
- GI50 (SW-620 colon): 0.272 µM
- TGI (SW-620 colon): 1 µM
- GI50 (SF-268 CNS): 0.693 µM
- TGI (SF-268 CNS): 1.37 µM

Structure (SMILES): CCOC(=O)c1ccc2c(c1)[n+](=O)c(C(=O)c1ccc3ccccc3c1)c(C(F)(F)F)n2[O-]
- GI50 (OVCAR-5 ovarian): 1.3 µM
- TGI (OVCAR-5 ovarian): 2.57 µM
- GI50 (PC-3 prostate): 0.729 µM
- TGI (PC-3 prostate): 2 µM
- GI50 (OVCAR-3 ovarian): 0.749 µM
- TGI (OVCAR-3 ovarian): 2.03 µM
- GI50 (SK-OV-3 ovarian): 1.64 µM
- TGI (SK-OV-3 ovarian): 2.99 µM
- GI50 (UO-31 renal): 1.3 µM
- TGI (UO-31 renal): 2.57 µM
- GI50 (BT-549 breast): 1.53 µM
- TGI (BT-549 breast): 3.28 µM
- GI50 (M14 melanoma): 1.44 µM
- TGI (M14 melanoma): 2.74 µM
- GI50 (SR leukemia): 0.331 µM
- TGI (SR leukemia): 1.6 µM
- GI50 (SW-620 colon): 1.52 µM
- TGI (SW-620 colon): 2.92 µM
- GI50 (SF-268 CNS): 1.15 µM
- TGI (SF-268 CNS): 2.36 µM
